The results in this text go back to ChEMBL document CHEMBL1201862, “PubChem BioAssay data set” (2004).

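Each compound was tested at five concentrations against cells in 96-well plates for 48 hours. Here, GI50 denotes the concentration required for 50% inhibition of growth.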 The source made the active and inactive calls. Rule as the data show it: active = GI50 up to about 1.1 µM and inactive = higher.

Among the test systems are SF-539; OVCAR-4; NCI-H522; UACC-257; HCC 2998; ACHN; KM12; A498; UACC-62; SK-MEL-2; OVCAR-3; HCT-15; Malme-3M; CAKI-1; COLO 205; M14; U-251; MDA-MB-231; SNB-75; NCI-H226.
Holding throughout (assay): growth of human tumour cells (NCI), 48 h

As for `C[C@]1(O)O[C@@H]2OCC[C@@H]2C2=C1C(=O)c1ccccc1C2=O`, the GI50 in the test on SF-539 is 17.3 µM (inactive); in the test on OVCAR-4, 12.5 µM (inactive); with NCI-H522 it was 16.6 µM (inactive); with UACC-257 it was 17.1 µM (inactive); in the test on HCC 2998 it was 17.3 µM (inactive); in the test on ACHN, 17.7 µM (inactive). Besides, the GI50 was 14.8 µM (inactive) with KM12; 14.1 µM (inactive) with A498; 19.2 µM (inactive) with UACC-62; 17.4 µM (inactive) in the test on SK-MEL-2; 9.66 µM (inactive) in the test with OVCAR-3; 19 µM with HCT-15. Further, the GI50 with Malme-3M was 15.9 µM (inactive); in the test on CAKI-1 it was 20.1 µM (inactive); with COLO 205, 24.9 µM (inactive); in the test with M14 it was 11.3 µM (inactive); in the test with U-251, 15.2 µM (inactive); with MDA-MB-231, 21.2 µM (inactive). Besides, the GI50 in the test on SNB-75 was 29.6 µM (inactive).
Regarding `N#CCCN(CCC#N)c1ccc(C(/N=N/c2ccccc2)=N\c2ccccc2)cc1`, the GI50 in the test with SF-539 is > 100 µM (inactive); in the test with OVCAR-4, > 100 µM (inactive); in the test on NCI-H522 it was 59.6 µM (inactive); with UACC-257, > 100 µM (inactive); with HCC 2998, > 100 µM (inactive); in the test on ACHN, > 100 µM (inactive). Further, the GI50 was > 100 µM (inactive) in the test with KM12; > 100 µM (inactive) with A498; > 100 µM (inactive) in the test on UACC-62; > 100 µM (inactive) in the test with SK-MEL-2; > 100 µM (inactive) in the test with OVCAR-3; above 100 µM with HCT-15. Also, the GI50 in the test with NCI-H226, in the test with CAKI-1, in the test on COLO 205, in the test with M14, in the test with U-251 and in the test with MDA-MB-231 was > 100 µM (inactive) throughout. Moreover, the GI50 in the test with SNB-75 is > 100 µM (inactive).
Turning to `C[C@@H]1C[C@H]2[C@@H]3CCC4=CC(=O)C=C[C@]4(C)[C@@]3(Cl)[C@@H](Cl)C[C@]2(C)[C@@]1(O)C(=O)COP(=O)(O)O`, the GI50 with OVCAR-4, with NCI-H522, in the test on UACC-257, with HCC 2998, in the test with ACHN and with KM12 was > 100 µM (inactive) throughout. The GI50 is > 100 µM (inactive) in the test with A498; > 100 µM (inactive) in the test on UACC-62; > 100 µM (inactive) with SK-MEL-2; > 100 µM (inactive) in the test on OVCAR-3; above 100 µM in the test with HCT-15; > 100 µM (inactive) in the test on Malme-3M. For the same compound, the GI50 in the test on NCI-H226, in the test with CAKI-1, with COLO 205, with M14, with U-251 and with MDA-MB-231 was > 100 µM (inactive) in each case. For the same compound, the GI50 in the test with SNB-75 is > 100 µM (inactive).
With `COc1ccc2c(c1)CCc1c-2n(CCN2CCCCC2)c2ccc(OC)cc12`, the GI50 with OVCAR-4 was > 100 µM (inactive); in the test on NCI-H522, 61.5 µM (inactive); in the test with UACC-257 it was > 100 µM (inactive); in the test on HCC 2998, > 100 µM (inactive); in the test with ACHN, > 100 µM (inactive); with A498, > 100 µM (inactive). The GI50 with UACC-62 is > 100 µM (inactive); in the test with SK-MEL-2 it was > 100 µM (inactive); with OVCAR-3 it was > 100 µM (inactive); in the test on HCT-15, above 100 µM; in the test with Malme-3M, > 100 µM (inactive); in the test on NCI-H226, 10.4 µM (inactive). Also, the GI50 with CAKI-1, in the test on COLO 205, with M14, with U-251, in the test on MDA-MB-231 and in the test with SNB-75 was > 100 µM (inactive) in each case.
For `CN(C)Cc1cc(C(=O)/C=C/c2ccc([N+](=O)[O-])cc2)cc(CN(C)C)c1O`, the GI50 with SF-539 was 18.5 µM (inactive); in the test on NCI-H522, 4.74 µM (inactive); in the test with UACC-257 it was 14.1 µM (inactive); in the test on HCC 2998, 17.4 µM (inactive); in the test on ACHN, 3.33 µM (inactive); in the test on KM12, 11.9 µM (inactive). In addition, the GI50 with A498 is 11 µM (inactive); in the test with UACC-62 it was 13.9 µM (inactive); in the test with SK-MEL-2, 11.1 µM (inactive); in the test on OVCAR-3 it was 2.27 µM (inactive); in the test on HCT-15, 10.1 µM; in the test on NCI-H226, 3.9 µM (inactive). Moreover, the GI50 in the test with COLO 205 was 1.99 µM (inactive); in the test with M14, 9.23 µM (inactive); in the test on U-251, 3.18 µM (inactive); in the test with MDA-MB-231 it was 14.9 µM (inactive); in the test with SNB-75, 2.97 µM (inactive).
With `CCN(CCCl)c1ccc(NC(=O)c2cc(C(=O)NCCN(C)C)cc(C(=O)Nc3ccc(N(CC)CCCl)cc3)c2)cc1`, the GI50 in the test on SF-539 is 1.62 µM (inactive); in the test with OVCAR-4 it was 9.38 µM (inactive); with NCI-H522 it was 2.3 µM (inactive); in the test with UACC-257 it was 18.1 µM (inactive); in the test with HCC 2998 it was 10.6 µM (inactive); in the test on ACHN it was 5.25 µM (inactive). Also, the GI50 with KM12 was 8.65 µM (inactive); with A498, 18.5 µM (inactive); with UACC-62 it was 4.98 µM (inactive); in the test with SK-MEL-2 it was 15.7 µM (inactive); in the test with HCT-15, 51.1 µM; in the test with Malme-3M, 13.6 µM (inactive). Moreover, the GI50 in the test with NCI-H226 is 3.94 µM (inactive); in the test on CAKI-1 it was 27.5 µM (inactive); with M14, 9.38 µM (inactive); in the test on U-251, 2.18 µM (inactive); in the test with MDA-MB-231, 15.6 µM (inactive); in the test with SNB-75, 8.55 µM (inactive).
With `COc1cc(OC)c(/C=C\c2ccnc3ccccc23)c(OC)c1`, the GI50 in the test with SF-539 was 3.73 µM (inactive); with OVCAR-4, 0.349 µM (active); in the test with NCI-H522 it was 3.76 µM (inactive); in the test with UACC-257, 3.75 µM (inactive); in the test with HCC 2998, 9.31 µM (inactive); in the test with ACHN, 4.41 µM (inactive). In addition, the GI50 was 0.736 µM (active) in the test with KM12; 2.88 µM (inactive) in the test on A498; 2.49 µM (inactive) with UACC-62; 3.88 µM (inactive) in the test on SK-MEL-2; 2.92 µM (inactive) in the test with OVCAR-3; 0.794 µM in the test on HCT-15. For the same compound, the GI50 was 1.34 µM (inactive) in the test on Malme-3M; 4.11 µM (inactive) in the test with NCI-H226; 6.93 µM (inactive) in the test on CAKI-1; 1.98 µM (inactive) in the test with COLO 205; 3.4 µM (inactive) in the test with M14; 3.81 µM (inactive) with U-251. Also, the GI50 with MDA-MB-231 was 3.05 µM (inactive).
Take `C[N+]1(C)CC[N+](C)(C)[BH-]1C(O)O`: the GI50 in the test on SF-539, with OVCAR-4, in the test with NCI-H522, with UACC-257, in the test on HCC 2998 and in the test on ACHN was > 100 µM (inactive) each time. In addition, the GI50 was > 100 µM (inactive) in the test with KM12; > 100 µM (inactive) in the test with A498; > 100 µM (inactive) in the test with UACC-62; > 100 µM (inactive) with SK-MEL-2; > 100 µM (inactive) in the test on OVCAR-3; above 100 µM in the test on HCT-15. Besides, the GI50 with CAKI-1 is > 100 µM (inactive); with COLO 205 it was > 100 µM (inactive); with M14 it was > 100 µM (inactive); with U-251, > 100 µM (inactive); in the test with MDA-MB-231, > 100 µM (inactive); in the test with SNB-75, 0.376 µM (active).
Regarding `COC(=O)c1sc(=S)sc1SCc1ccc(CSc2sc(=S)sc2C(=O)OC)cc1`, the GI50 in the test with OVCAR-4, with NCI-H522, in the test on UACC-257, in the test on HCC 2998, with ACHN and in the test with KM12 was > 100 µM (inactive) throughout. For the same compound, the GI50 is > 100 µM (inactive) with A498; > 100 µM (inactive) with UACC-62; > 100 µM (inactive) in the test with SK-MEL-2; > 100 µM (inactive) with OVCAR-3; above 100 µM in the test with HCT-15; > 100 µM (inactive) with Malme-3M. Further, the GI50 in the test on NCI-H226, in the test with CAKI-1, with COLO 205, with M14, in the test on U-251 and with MDA-MB-231 was > 100 µM (inactive) each time. Also, the GI50 in the test with SNB-75 was > 100 µM (inactive).
In the case of `Cc1ccc2c(c1)-c1nc(N)c(C#N)c(-c3ccc(Cl)cc3)c1CCS2(=O)=O`, the GI50 with OVCAR-4 is 52 µM (inactive); with NCI-H522 it was 29.8 µM (inactive); with UACC-257, 45.6 µM (inactive); with HCC 2998, 64.3 µM (inactive); in the test on ACHN it was 44.6 µM (inactive); in the test with KM12 it was 33.3 µM (inactive). Moreover, the GI50 is 24.6 µM (inactive) in the test on A498; 28.2 µM (inactive) in the test on UACC-62; 22.5 µM (inactive) in the test on SK-MEL-2; 43.2 µM with HCT-15; 44.6 µM (inactive) in the test on Malme-3M; 28.4 µM (inactive) with NCI-H226. Besides, the GI50 in the test on CAKI-1 is 38.5 µM (inactive); in the test with COLO 205, 24.7 µM (inactive); in the test on U-251, 40 µM (inactive); in the test with MDA-MB-231, 27.1 µM (inactive); in the test with SNB-75, 49 µM (inactive).
As to `C[C@]12CCC(=O)C=C1CC[C@@H]1[C@@H]2CC[C@]2(C)C(=O)/C(=C/c3ccc([N+](=O)[O-])cc3)C[C@@H]12`, the GI50 was 79.3 µM (inactive) in the test on SF-539; 4.66 µM (inactive) in the test on NCI-H522; 6.59 µM (inactive) in the test on UACC-257; 63.2 µM (inactive) in the test with HCC 2998; 2.36 µM (inactive) with ACHN; 6.93 µM (inactive) in the test with KM12. The GI50 in the test with A498 was 2.3 µM (inactive); in the test with UACC-62 it was 3.36 µM (inactive); with SK-MEL-2, 62.5 µM (inactive); in the test with OVCAR-3 it was 8.91 µM (inactive); in the test with HCT-15, 10.5 µM; in the test with Malme-3M it was 70.8 µM (inactive). Also, the GI50 in the test on NCI-H226 is > 100 µM (inactive); in the test with CAKI-1, 8.95 µM (inactive); in the test on COLO 205, 7.41 µM (inactive); with M14 it was 29.4 µM (inactive); with MDA-MB-231, 75.2 µM (inactive); with SNB-75 it was 42 µM (inactive).
